{"source": "patent US20120149724A1", "about": "“MODULATING ENDOGENOUS BETA-ENDORPHIN LEVELS” (THE GENERAL HOSPITAL CORPORATION, priority 2009, published 2012)", "key": {"UV-exposed C57BL/6 mice": {"test_system": "UV-exposed C57BL/6 mice", "test": "pain thresholds (von Frey and hot plate) over daily low-dose UVB exposure", "assay_type": "in vivo", "settings": "UVB 50 mJ/cm2/day, 5 days/week for 6 weeks, 10 mg/kg ip 15 minutes before testing", "method": "To obtain the data shown in FIGS. 7A, 7B and 7C, eight-week-old male C57BL/6 mice were dorsally depilated and either exposed to 50 mJ/cm2/day or mock exposed 5 days/week for 6 weeks. Blood was drawn prior to, once weekly during, and once weekly for 2 weeks following the end of the regimen for β-endorphin measurement. In addition, pain thresholds in both the von Frey and hot plate assay were measured prior to, twice weekly during, and twice weekly for 2 weeks following the end of the regimen. One subgroup of UV-exposed mice and one subgroup of mock-treated mice were injected with naloxone (10 mg/kg, ip) and another subgroup of UV-exposed mice and mock-treated mice were injected with saline (ip) 15 minutes prior to each pain threshold testing. Pain threshold measurements were taken on 2 non-consecutive days and on a different day from the blood draws each week. […] Error bars indicate +/−SEM. […] Error bars indicate +/− standard deviation. […]\nEight-week-old male C57BL/6 mice were dorsally depilated and either exposed to 50 mJ/cm2/day or mock exposed 5 days/week for 6 weeks. […] In addition, pain thresholds in both the von Frey and hot plate assay were measured prior to, twice weekly during, and twice weekly for 2 weeks following the end of the regimen. […]"}, "Sprague-Dawley rats": {"test_system": "Sprague-Dawley rats", "test": "actimetry (locomotor activity) in rats over a daily tail radiation regimen", "assay_type": "in vivo", "settings": "2 Gy/day tail radiation for 6 weeks; 1 mg/kg ip 15 minutes before actimetry", "method": "Eight week old male Sprague-Dawley rats underwent a 6-week regimen of 2 Gy/day daily tail radiation of mock exposure. Prior to the start of the regimen, baseline activity was recorded as total distance traveled in 30 minutes in the actimetry chamber. During the regimen and for 2 weeks following the end of the regimen, actimetry measurements were made once per week, and for these measurements, half of the tail-irradiated rats and half of the mock-exposed rats were injected with naloxone (1 mg/kg, ip) 15 minutes prior to actimetry testing, and the other half of tail-irradiated and mock-exposed animals were injected with saline (ip) 15 minutes prior to actimetry testing. In addition, blood was drawn prior to, once weekly during, and once weekly for 2 weeks following the end of the regimen for β-endorphin measurement. […] Top graphs show results for tail-irradiated rats, bottom graphs show results for mock-exposed controls. Left side graphs show results for rats injected with saline prior to actimetry testing, right side graphs show results for rats injected with naloxone prior to actimetry testing. […] Error bars indicate +/−SEM, and (*) indicates p<0.05 by two-tailed Student's t-test with respect to baseline values for that group."}, "plasma β-endorphin": {"test_system": "plasma β-endorphin", "test": "plasma β-endorphin by radioimmunoassay over a tail radiation or mock regimen", "assay_type": "in vivo, mice", "source_text": "FIG. 4C illustrates the plasma beta-endorphin fluctuations in the C57BL/6 mice as described in FIGS. 4A and 4B. To obtain the data shown in FIG. 4C, blood was drawn once per week over the 6 week regimen, and for the 2 weeks following. The blood was drawn in the morning prior to the radiation treatment for that day. FIG. 4C uses data obtained by C57BL/6 male mice, 10 mice per treatment group. Mock exposed mice remained stable throughout the regimen.\nFor all experiments, mice used were in a C57BL/6 background. In all experiments wild type mice were used, and in select experiments mice containing homozygous deletion of the p53 gene (p53−/−) were used. All mice were 8 weeks old at the beginning of each experiment. […] Blood Draws and Preparation for Radioimmunoassay Mice were placed in a standard restrainer. A 30-gauge needle was inserted into the tail vein, and 200 uL of blood was collected in EDTA microvette tubes containing 5 TIU aprotinin. Tubes were maintained on ice at all times. Tubes were spun at 3500 rpm at 4° C. for 20 minutes. Plasma was isolated for β-endorphin measurement by commercially available radioimmunoassay (Phoenix Pharmaceuticals). […]"}, "[1]": {"test_system": "chronically UV-irradiated mice", "test": "naloxone-induced somatic symptoms of opiate withdrawal after chronic UVB exposure", "assay_type": "in vivo", "settings": "UVB 50 mJ/cm^2/day for 6 weeks, 2 mg/kg sc, counted over 25 minutes", "method": "To obtain the data shown in FIG. 9, mice were either exposed to 50 mJ/cm^2/day UVB radiation, or mock-exposed 5 days per week for 6 weeks. These two groups of mice were divided into subgroups and either injected with a dose of 2 mg/kg naloxone(sc) or saline. […] The symptoms observed include wet dog shake, paw tremor, jumping, grooming, teeth chatter, rearing and diarrhea.\nThis example assesses physical dependence to opiate agents by evaluating withdrawal symptoms in mice upon acute administration of an opiate antagonist. In mice, symptoms of opiate withdrawal include shaking vigorously (called a “wet-dog shake”), paw tremors, teeth chattering, jumping, rearing, increased grooming, and diarrhea. The occurrence of these symptoms were measured in mice either exposed to 50 mJ/cm^2/day UVB radiation 5 days per week for 6 weeks or mock-exposed on the same schedule. One subgroup of each group of mice was injected with 2 mg/kg subcutaneous naloxone and number of occurrences of each of the above-mentioned symptoms was counted over 25 minutes immediately following naloxone injection. The other subgroup was administered a subcutaneous injection of saline before the 25-minute observation period."}}, "note": "“Also recorded” adds a separate entry of the source."}
{"smiles": "C=CCN1CC[C@]23c4c5ccc(O)c4O[C@H]2C(=O)CC[C@@]3(O)[C@H]1C5", "note": "[naloxone]", "values": [{"measurement": "effect on UV-induced changes in pain thresholds / opioid-mediated phenotypes", "setting": "UV-exposed C57BL/6 mice", "value": "naloxone-reversible; also recorded: reversed"}, {"measurement": "effect on radiation-induced lethargy (total distance traveled in 30 minutes)", "setting": "Sprague-Dawley rats", "value": "Naloxone-Reversible Lethargy"}, {"measurement": "change in plasma beta-endorphin levels", "setting": "plasma β-endorphin; mock-exposed mice, 10 mg/kg", "value": "no increase in plasma beta-endorphin levels"}, {"measurement": "change in plasma β-endorphin", "setting": "plasma β-endorphin; tail-irradiated mice, 10 mg/kg before behavioral testing, over the radiation regimen", "value": "most dramatic increase in plasma β-endorphin; also recorded: elevations in systemic beta-endorphin over and above the elevation caused by tail radiation alone"}, {"measurement": "jumping behavior", "setting": "[1]", "value": "only group to show any jumping behavior at all"}, {"measurement": "occurrences of wet dog shakes, teeth chattering, paw tremoring, grooming and rearing", "setting": "[1]; compared to all other groups", "value": "significantly more"}]}
